What was measured:
[1] = tested on: houseflies (Musca domestica); assay: Biological test 9: topical application of acetone solution to houseflies; type: in vivo; details: 5 µg / one housefly, after 24 hours
Description: After 24 hours, the percent moribund was examined (two replicate).

[2] = tested on: webbing clothes moth (Tineola bisselliella); assay: Biological test 12: topical application to webbing clothes moth larvae; type: in vivo; details: 3 µg / insect, after 7 days
Description: Each of the present compounds diluted with acetone to a predetermined concentration was applied to ten middle instar larvae of webbing clothes moth (Tineola bisselliella) at the central part of the back so as to give the active ingredient in a dose of 3 µg / insect. A wool muslin fabric (2 cm × 2 cm in size) was given to the webbing clothes moths as the food. After 7 days, the mortality and the degree of damage of the wool muslin fabric by the moths were examined (two replicate).

[3] = tested on: southern corn rootworm (Diabrotica undecimpunctata howardi); assay: Biological test 3: treated filter paper with eggs and sprouting corn; details: Diabrotica undecimpunctata, in Zea mays, 192 h, read-out: mortality of the hatched larvae and eggs
[4] = tested on: common mosquitoes (Culex pipiens pallens); assay: Biological test 11: vapour exposure over treated aluminum plate, mosquitoes; type: in vivo; details: Culex pipiens, 24 h
Description: (§1) After 0.64 ml of a 0.05 (w/v) % acetone solution of the present compounds was dropped into an aluminum plate (bottom diameter : 7 cm), acetone was air-dried. Ten female common mosquitoes (Culex pipiens pallens) were left in a polyethylene cup (diameter : 9 cm; depth : 4.5 cm) and the cup was sealed with a 16-mesh nylon net to prevent direct contact of the mosquitoes with the compound. The cup was placed upside down on the aluminum plate at 25 °C for 120 minutes. The cup was then removed from the aluminum plate, and water and feed were given to the mosquitoes. After 24 hours, the mortality was examined (two replicate).

[5] = tested on: tobacco cutworm (Spodoptera litura); assay: Biological test 1: artificial bait impregnated with emulsion; details: Spodoptera litura, in Nicotiana tabacum, 144 h
[6] = tested on: common mosquitoes (Culex pipiens pallens); assay: Biological test 8: mosquito-coil in glass chamber, knock-down; type: in vivo; details: 1.0 g of 0.3 % mosquito-coil, 0.34 m^3 chamber, after 15 minutes
Description: Mosquito-coil containing the present compound in an amount of 0.3 % was prepared according to the formulation example 10 for the present compounds. Ten female common mosquitoes (Culex pipiens pallens) were left in a glass chamber (70 cm × 70 cm × 70 cm : 0.34 m^3) and 1.0 g of 0.3 % mosquito-coil having both ends lit was placed in the glass chamber. After 15 minutes, the rate of knocked-down mosquitoes was examined.

rats = details: male 7-week old rats, into the stomach in corn oil, after 7 days
Description: After subjecting the rats to a twenty-hour fasting, 0.1 ml of the diluted solution per 10g weight was forcibly applied into the stomach of four male 7-week old rats. The rats were given food and water four hours after the application and thereafter regularly fed and watered, and kept in a cage. After 7 days, the mortality was examined for the rats and LD50 was calculated.

[7] = tested on: webbing clothes moth (Tineola bisselliella); assay: Biological test 13: volatile agent hung in cup with webbing clothes moth larvae; type: in vivo; details: volatile agent (100 µg on filter paper), 25 °C for 1 week
Description: A wool muslin fabric (2 cm × 2 cm in size) was placed on the bottom of a polyethylene cup (bottom diameter : 10 cm, opening part diameter : 12.5 cm, height : 9.5 cm, volume : 950 cm^3 ). Ten middle instar larvae of webbing clothes moth (Tineola bisselliella) were put in the cup and each of the volatile agents prepared according to the formulation example 14 was hung from the cap in the interior of the cup. After standing at 25 °C for 1 week, the cup was opened, and the mortality and the degree of damage of the wool muslin fabric by the moths were examined (two replicate).

[8] = tested on: houseflies (Musca domestica); assay: Biological test 10: vapour exposure over treated aluminum plate, houseflies; type: in vivo; details: 0.64 ml of 0.05 (w/v) % acetone solution, no direct contact, 25 °C for 120 minutes, after 24 hours
Description: as §1, with “houseflies (Musca domestica)” for “common mosquitoes (Culex pipiens pallens)”, “houseflies” for “mosquitoes”, “houseflies.” for “mosquitoes.”, “percent moribund” for “mortality”

[9] = tested on: German cockroaches (Blattella germanica); assay: Biological test 5: treated filter paper with sucrose bait, cockroaches low sensitive to pyrethroids; details: Blattella germanica, 144 h
[10] = tested on: common mosquitoes (Culex pipiens pallens); assay: Biological test 6: mosquito larvae in treated water; type: in vivo; details: Culex pipiens, 24 h; 3.5 ppm active ingredient in water, last-instar larvae, after one day
Description: 0.7 ml of aqueous emulsion, obtained by diluting emulsifiable concentrate prepared for each of the present compounds according to the formulation example 1 was added to 100 ml of ion-exchanged water (concentration of active ingredient : 3.5 ppm). Twenty last-instar larvae of common mosquitoes (Culex pipiens pallens) were left in the water. After one day, the mortality of the common mosquitoes was examined.

[11] = tested on: common mosquitoes (Culex pipiens pallens); assay: Biological test 7: oil solution sprayed in glass chamber, knock-down; type: in vivo; details: 0.7 ml of 0.1 % oil solution sprayed, 0.34 m^3 chamber, after 15 minutes
Description: Ten female common mosquitoes (Culex pipiens pallens) were left in a glass chamber (70 cm × 70 cm × 70 cm : 0.34 m^3). 0.7 ml of 0.1 % oil solution prepared for each of the present compounds according to the formulation example 7 was sprayed with a spray gun at 0.8 atmospheric pressure. After 15 minutes, the rate of knocked-down mosquitoes was examined.

[12] = tested on: brown planthopper (Nilaparvata lugens); assay: Biological test 2: rice plant stalk dipped in emulsion; type: in vivo; details: Nilaparvata lugens, 144 h; 500 ppm aqueous emulsion, larvae, after 6 days
Description: A stalk of a rice plant was dipped for one minute in a 500 ppm aqueous emulsion obtained by diluting each emulsifiable concentrate of the present compounds prepared according to the formulation example 1. The rice plant stalk was air-dried and placed in a polyethylene cup (diameter : 5.5 cm) where filter paper (diameter : 5.5 cm) impregnated with 1 ml of water was put. Approximately 30 larvae of brown planthopper (Nilaparvata lugens) were put in the polyethylene cup. After 6 days, the mortality of the larvae was examined.

[13] = tested on: webbing clothes moth (Tineola bisselliella); assay: Biological test 14: persistence of treated filter paper in cardboard box, webbing clothes moth larvae; type: in vivo; design: key to degree of damage: -: no damage; +: slight damage; ++: heavy damage; +++: severe damage; details: 36 mg on filter paper
Description: A filter paper (3.2 cm × 3.2 cm in size) treated with 36 mg of each of the present compounds and two wool muslin fabrics (25 cm × 25 cm in size) were hung down at the upper part of a corrugated cardboard box (29 cm × 29 cm × 29 cm in size). After standing at 25 °C and a humidity of 60 % for 1 week, two tea-strainer balls holding 7 to 10 middle instar larvae of webbing clothes moth (Tineola bisselliella) and one piece of wool muslin cloth (2 cm × 2 cm in size) were hung down at the upper part of the box. The box was closed with a lid. After one week, the box was opened, and the percent moribund and the degree of damage of the wool muslin cloth by the moths were examined. The same tests was repeated 2 weeks, 3 weeks and 5 weeks after the treatment to examine the persistance of the present compound. The degree of damage was represented by "-" in no damage, " + " in slight damage, " ++ " in heavy damage and "+++ " in severe damage.

Cc1ccc(COC(=O)[C@@H]2[C@H](/C=C(\Cl)C(F)(F)F)C2(C)C)o1 (racemic) [present compound (1), 5-methyl-2-furfuryl (1RS,cis)-3-(Z-2-chloro-3,3,3-trifluoroprop-1-enyl)-2,2-dimethylcyclopropanecarboxylate]
percent moribund [1]: 100%
degree of damage of the wool muslin fabric [2]: no damage
mortality at 0.003 mg ([2]; Tineola bisselliella, 168 h): 100%
mortality at 50 ppm [3]: 100%
mortality at 500 µg/mL [4]: 100%
mortality at 500 µg/mL [5]: 100%
rate of knocked-down mosquitoes [6]: 100%
LD50 (rats): 300 mg/kg
mortality at 0.1 mg ([7]; Tineola bisselliella, 168 h): 100%
degree of damage of the wool muslin fabric [7]: no damage
percent moribund [8]: 100%
mortality at 500 ppm [9]: 100%
mortality at 3.5 ppm [10]: ≥ 90%
rate of knocked-down mosquitoes [11]: ≥ 90%
mortality at 500 ppm [12]: ≥ 90%
degree of damage ([13]; After 1 week): -
percent moribund ([13]; After 1 week): 100%
degree of damage ([13]; After 2 weeks): -
percent moribund ([13]; After 2 weeks): 100%
degree of damage ([13]; After 3 weeks): -
percent moribund ([13]; After 3 weeks): 100%
degree of damage ([13]; After 5 weeks): -
percent moribund ([13]; After 5 weeks): 100%

From EP0989125B1, “Pesticidal furylmethyl cyclopropanecarboxylates” (Sumitomo Chemical Company, Limited, priority 1998, dated 2000)
